# How the values were obtained:
# human basophils = assay: leukotriene production from human basophils; type: cell-based; settings: anti-human IgE antibody stimulation; IL-3 preincubation
# Method: To act them on cells, the solutions were further diluted to 10 μM to 0.01 μM (0.1% DMSO solution).
# Using a syringe charged with 3.8% sodium citrate solution, 100 mL blood was obtained from human blood.
# Using 10× HBSS (−) (10×Hank's balanced salt solution, GIBCO), Percoll (Amersham) and Milli Q water, 1.070 g/mL, 1.079 g/mL and 1.088 g/mL Percoll-HBSS (−) were prepared and layered, and the obtained blood was loaded on the layers and centrifuged at 300× g for 25 minutes. A cell fraction between the 1.070 g/mL Percoll-HBSS (−) layer and the 1.079 g/mL Percoll-HBSS (−) layer was recovered. 3 volumes of HBSS (−) was added to the recovered cell suspension and centrifuged at 300× g at 4° C. for 7 minutes. After centrifugation, the supernatant was discarded and the cells were rinsed once with HBSS (−). Thus recovered cell population was used as the basophils.
# The basophils were prepared to 2.5×10^6 cells/mL with Tyrode solution, and 10 μg/mL recombinant human IL-3 (Genzyme/Techne) was added to a final concentration of 100 ng/mL. Immediately thereafter, 80 μL/well ([…]) of basophils were seeded on a round-bottom 96-well plate and were incubated in 5% CO2 at 37° C. for 30 minutes.
# After preincubation, 10 μL/well of the above-described test compound was added and incubated in 5% CO2 at 37° C. for 10 minutes. […]
# [1] = tested on: 2-AG-E-induced ear swelling; assay: effect of compound A on 2-AG-E-induced ear swelling; type: in vivo, mouse
# Method: Therefore, 2-arachidonoylglycerol ether (2-AG-E), the stable form of an endogenous ligand candidate 2-arachidonoylglycerol, and a specific CB2 agonist HU-308 were examined whether they directly induce ear swelling and compared to the ear swelling induced by arachidonic acid (AA).
# Synthetically produced 2-AG-E and HU-308 were prepared with acetone to 1 or 10% (w/v) and 10% (w/v), respectively, and AA (Sigma) was prepared with acetone to 1.25% (w/v), on needed basis. 10 μL each of these substances was applied on each side of the left ear.
# One hour later, 10 μL each of 10% (w/v) 2-AG-E was applied on each side of the left ear.
# [2] = tested on: spontaneous scratching reaction; assay: spontaneous scratching reaction of NC mouse; type: in vivo; settings: NC/Jic mice; oral once a day for 3 weeks; vs solvent control
# Excerpt: Currently, NC mouse is used as an animal model of atopic dermatitis. No dermatitis or scratching action is observed when the mouse is kept in an environment under the control of atmospheric microorganisms (in SPF environment). However, when the mouse is kept in a conventional environment, scratching action together with the onset of dermatitis can be observed from about week 8 and the symptom progresses into chronic symptom (J. Dermatol. Sci., 25, 20-28, 2001).
# Preparation of solvent: MC was dissolved in tap water to prepare an aqueous 0.5% (w/v) MC solution.
# As positive controls, betamethasone valerate (Sigma) and tacrolimus hydrate (extracted from Prograf (Fujisawa Pharmaceutical Co., Ltd.)) were similarly prepared to 1 mg/mL. Betamethasone valerate is one of the adrenocorticosteroids that is considered to be effective for the treatment of atopic dermatitis. Tacrolimus hydrate is a therapeutic agent of atopic dermatitis which is known as an immunosuppressor as described above.
# The mice (A) were taken away from the cage and the NC/Jic mice were used at the age of 16 weeks.
# Breeding conditions: The mice were fed with solid feed CA-1 (CLEA JAPAN INC.) ad libitum and tap water as drinking water ad libitum, and kept at a temperature of 22±2° C. and a humidity of 55±10% under lighting from 8:00 a.m. to 20:00 p.m.
# From 10 days before the start of the experiment, the number of scratching behavior with hind legs of the mice was visually counted (for 20 minutes; once daily) over 2 days or 3 days. Among the plural mice counted, mice with 50 or more average scratching movements per day were selected for use.
# The behavior of the mice was filmed under unattended environment with a video camera to count the scratching motion with hind legs for one hour. […] This series of scratching motions was counted as one scratching movement, and all such scratching movements were counted irrespective of scratched sites. The measurement was done on the starting day of administration, and one day, 3, 6, 10, 13, 17 and 20 days after the start of administration. […]
structure (smiles),measurement,setting,value
"CCCCCOc1c(OC)ccc2cc(C(=O)NCc3ccc4c(c3)OCO4)c(=O)[nH]c12 [Compound A, N-(benzo[1,3]dioxol-5-ylmethyl)-7-methoxy-2-oxo-8-pentyloxy-1,2-dihydroquinoline-3-carboxamide]",production of leukotrienes (C4/D4/E4),human basophils,suppressive action
same,ear swelling induced by the application of 10% 2-AG-E (AUC day 0 to day 8),"[1]; oral 0.01, 0.1, 1, 10 mg/kg one hour before 2-AG-E, dose-dependent",suppressed ear swelling
same,"ear swelling induced by 10% 2-AG-E, significance",[1]; oral 1 or 10 mg/kg,significant effect
same,number of scratching movements,[2],suppressed the number of scratching movements
